# Several values for one entry are separate records, joined by “and”; a condition that tells them apart may be missing. Identical values can stand only once. Toxic doses and inconclusive results are not listed.
# System: BDF1 mice, L1210 6-MP/6-TG resistant leukemia ip, survival T/C
# Assay: NCI In Vivo Anticancer Drug Screen. Data for tumor model L1210 Leukemia resistant to 6-MP and 6-Thioguanine; NSC 755, NSC 752 (intraperitoneal) in B6D2F1 (BDF1) mice
# Conditions: endpoint: mean survival time, higher = longer survival
# Protocol: The antitumor activity of compounds was measured in mice bearing transplantable tumors. Survival or tumor size were measured and the results are expressed as the measurement made in the treated group (T) divided by the measurement made in the vehicle treated control group (C). The tumor model used in this assay is L1210 Leukemia resistant to 6-MP and 6-Thioguanine; NSC 755, NSC 752 (intraperitoneal) in B6D2F1 (BDF1) mice
# [1] = dose: 125.0 mg/kg/injection, schedule: Q01DX Z (ip), vehicle: carboxymethylcellulose (CMC)
# [2] = dose: 12.5 mg/kg/injection, schedule: Q01DX Z (ip), vehicle: carboxymethylcellulose (CMC)
# [3] = dose: 25.0 mg/kg/injection, schedule: Q01DX Z (ip), vehicle: carboxymethylcellulose (CMC)
# [4] = dose: 50.0 mg/kg/injection, schedule: Q01DX Z (ip), vehicle: carboxymethylcellulose (CMC)
# [5] = dose: 100.0 mg/kg/injection, schedule: Q01DX Z (ip), vehicle: carboxymethylcellulose (CMC)
# [6] = dose: 200.0 mg/kg/injection, schedule: Q01DX001 (ip), vehicle: carboxymethylcellulose (CMC)
# [7] = dose: 200.0 mg/kg/injection, schedule: Q01DX Z (ip), vehicle: carboxymethylcellulose (CMC)
# [8] = dose: 400.0 mg/kg/injection, schedule: Q01DX001 (ip), vehicle: carboxymethylcellulose (CMC)
# [9] = dose: 6.0 mg/kg/injection, schedule: Q01DX Z (ip), vehicle: carboxymethylcellulose (CMC)
# [10] = dose: 250.0 mg/kg/injection, schedule: Q01DX Z (ip), vehicle: carboxymethylcellulose (CMC)
smiles,measurement,setting,value
CCC1(Sc2ncnc3nc[nH]c23)C(=O)NC(=O)NC1=O,T/C,"dose: 6.25 mg/kg/injection, schedule: Q01DX010 (ip), vehicle: alkali diluted with saline",104 % of control
same,T/C,"dose: 12.5 mg/kg/injection, schedule: Q01DX010 (ip), vehicle: alkali diluted with saline",96 % of control
same,T/C,"dose: 25.0 mg/kg/injection, schedule: Q01DX010 (ip), vehicle: alkali diluted with saline",107 % of control
same,T/C,"dose: 50.0 mg/kg/injection, schedule: Q01DX010 (ip), vehicle: alkali diluted with saline",102 % of control
same,T/C,"dose: 100.0 mg/kg/injection, schedule: Q01DX010 (ip), vehicle: alkali diluted with saline",104 % of control
same,T/C,"dose: 200.0 mg/kg/injection, schedule: Q01DX010 (ip), vehicle: alkali diluted with saline",107 % of control
S=c1nc[nH]c2c1ncn2C1CCCCO1 (configuration not stated),T/C,"dose: 16.0 mg/kg/injection, schedule: Q01DX Z (ip), vehicle: carboxymethylcellulose (CMC)",104 % of control
same,T/C,"dose: 31.0 mg/kg/injection, schedule: Q01DX Z (ip), vehicle: carboxymethylcellulose (CMC)",104 % of control
same,T/C,"dose: 62.0 mg/kg/injection, schedule: Q01DX Z (ip), vehicle: carboxymethylcellulose (CMC)",107 % of control
same,T/C,[1],96 % of control
Cn1cnc([N+](=O)[O-])c1Sc1nc(N)nc2nc[nH]c12,T/C,"dose: 7.5 mg/kg/injection, schedule: Q01DX Z (ip), vehicle: carboxymethylcellulose (CMC)",95 % of control
same,T/C,"dose: 10.0 mg/kg/injection, schedule: Q01DX Z (ip), vehicle: carboxymethylcellulose (CMC)",92 % of control
same,T/C,"dose: 15.0 mg/kg/injection, schedule: Q01DX Z (ip), vehicle: carboxymethylcellulose (CMC)",90 % of control
same,T/C,"dose: 20.0 mg/kg/injection, schedule: Q01DX Z (ip), vehicle: carboxymethylcellulose (CMC)",89 % of control
Clc1ncnc2nc[nH]c12,T/C,[2],97 % of control
same,T/C,[3],93 % of control
same,T/C,[4],92 % of control and 104 % of control
same,T/C,[5],90 % of control
same,T/C,[6],99 % of control and 104 % of control
same,T/C,[7],90 % of control
same,T/C,"dose: 267.0 mg/kg/injection, schedule: Q01DX001 (ip), vehicle: carboxymethylcellulose (CMC)",102 % of control and 107 % of control
same,T/C,"dose: 300.0 mg/kg/injection, schedule: Q01DX Z (ip), vehicle: carboxymethylcellulose (CMC)",88 % of control
same,T/C,[8],100 % of control and 102 % of control
CCCCNc1ncnc2c1cnn2C,T/C,"dose: 2.5 mg/kg/injection, schedule: Q01DX Z (ip), vehicle: saline",105 % of control
same,T/C,"dose: 5.0 mg/kg/injection, schedule: Q01DX Z (ip), vehicle: saline",105 % of control
same,T/C,"dose: 10.0 mg/kg/injection, schedule: Q01DX Z (ip), vehicle: saline",105 % of control
same,T/C,"dose: 20.0 mg/kg/injection, schedule: Q01DX Z (ip), vehicle: saline",104 % of control
same,T/C,"dose: 31.0 mg/kg/injection, schedule: Q01DX Z (ip), vehicle: saline",119 % of control
same,T/C,"dose: 62.5 mg/kg/injection, schedule: Q01DX Z (ip), vehicle: saline",104 % of control
same,T/C,"dose: 125.0 mg/kg/injection, schedule: Q01DX Z (ip), vehicle: saline",95 % of control
CCCC(=O)OCC1OC(n2cnc3c(=S)nc(N)[nH]c32)C(OC(=O)CCC)C1OC(=O)CCC (configuration not stated),T/C,[9],113 % of control
same,T/C,"dose: 12.0 mg/kg/injection, schedule: Q01DX Z (ip), vehicle: carboxymethylcellulose (CMC)",93 % of control
same,T/C,"dose: 24.0 mg/kg/injection, schedule: Q01DX Z (ip), vehicle: carboxymethylcellulose (CMC)",98 % of control
O=P(O)(OCC1OC(n2cnc3c(=S)nc[nH]c32)C(O)C1O)Oc1ccccc1 (configuration not stated),T/C,[6],103 % of control
same,T/C,"dose: 300.0 mg/kg/injection, schedule: Q01DX001 (ip), vehicle: carboxymethylcellulose (CMC)",99 % of control
same,T/C,[8],100 % of control
same,T/C,"dose: 500.0 mg/kg/injection, schedule: Q01DX001 (ip), vehicle: carboxymethylcellulose (CMC)",103 % of control
same,T/C,"dose: 750.0 mg/kg/injection, schedule: Q01DX001 (ip), vehicle: carboxymethylcellulose (CMC)",94 % of control
same,T/C,"dose: 1000.0 mg/kg/injection, schedule: Q01DX001 (ip), vehicle: carboxymethylcellulose (CMC)",86 % of control
Nc1ncnc2c1ncn2C(C=O)OC(C=O)CO (configuration not stated),T/C,"dose: 4.0 mg/kg/injection, schedule: Q01DX Z (ip), vehicle: carboxymethylcellulose (CMC)",97 % of control
same,T/C,[9],102 % of control
same,T/C,"dose: 8.0 mg/kg/injection, schedule: Q01DX Z (ip), vehicle: carboxymethylcellulose (CMC)",106 % of control
same,T/C,"dose: 12.0 mg/kg/injection, schedule: Q01DX015 (ip), vehicle: saline",170 % of control
same,T/C,"dose: 12.0 mg/kg/injection, schedule: Q01DX Z (ip), vehicle: saline",124 % of control
same,T/C,"dose: 13.0 mg/kg/injection, schedule: Q01DX015 (ip), vehicle: saline",171 % of control
same,T/C,"dose: 24.0 mg/kg/injection, schedule: Q01DX015 (ip), vehicle: saline",189 % of control
same,T/C,"dose: 48.0 mg/kg/injection, schedule: Q01DX015 (ip), vehicle: saline",111 % of control
same,T/C,"dose: 50.0 mg/kg/injection, schedule: Q01DX Z (ip), vehicle: saline",88 % of control
Clc1ccc(C(c2ccccc2Cl)C(Cl)Cl)cc1 (configuration not stated),T/C,"dose: 23.0 mg/kg/injection, schedule: Q01DX Z (sc), vehicle: steriod suspending solution",94 % of control
same,T/C,"dose: 46.0 mg/kg/injection, schedule: Q01DX Z (sc), vehicle: steriod suspending solution",97 % of control
same,T/C,"dose: 93.0 mg/kg/injection, schedule: Q01DX Z (sc), vehicle: steriod suspending solution",103 % of control
same,T/C,"dose: 187.0 mg/kg/injection, schedule: Q01DX Z (sc), vehicle: steriod suspending solution",101 % of control
same,T/C,"dose: 375.0 mg/kg/injection, schedule: Q01DX Z (sc), vehicle: steriod suspending solution",104 % of control
same,T/C,"dose: 500.0 mg/kg/injection, schedule: Q01DX Z (sc), vehicle: steriod suspending solution",100 % of control
same,T/C,"dose: 750.0 mg/kg/injection, schedule: Q01DX Z (sc), vehicle: steriod suspending solution",96 % of control
same,T/C,"dose: 1000.0 mg/kg/injection, schedule: Q01DX Z (sc), vehicle: steriod suspending solution",98 % of control
Cn1cnc2c(SCc3ccccc3)ncnc21,T/C,[2],100 % of control
same,T/C,[3],107 % of control
same,T/C,[4],100 % of control
same,T/C,"dose: 93.0 mg/kg/injection, schedule: Q01DX Z (ip), vehicle: carboxymethylcellulose (CMC)",87 % of control
same,T/C,[5],102 % of control
same,T/C,"dose: 187.0 mg/kg/injection, schedule: Q01DX Z (ip), vehicle: carboxymethylcellulose (CMC)",98 % of control
same,T/C,[10],92 % of control
Cn1c(O)c(N=NC(N)=S)c2ccccc21,T/C,[3],100 % of control
same,T/C,[4],105 % of control
same,T/C,[5],104 % of control
same,T/C,[7],88 % of control
Nc1nc2n[nH]nc2c(=O)[nH]1,T/C,"dose: 12.5 mg/kg/injection, schedule: Q01DX Z (ip), vehicle: water",100 % of control
same,T/C,"dose: 25.0 mg/kg/injection, schedule: Q01DX Z (ip), vehicle: water",104 % of control
same,T/C,"dose: 50.0 mg/kg/injection, schedule: Q01DX Z (ip), vehicle: water",98 % of control
same,T/C,"dose: 100.0 mg/kg/injection, schedule: Q01DX Z (ip), vehicle: water",92 % of control
same,T/C,"dose: 200.0 mg/kg/injection, schedule: Q01DX Z (ip), vehicle: water",95 % of control
O[C@H](CN1CC1)[C@@H](O)CN1CC1,T/C,"dose: 0.25 mg/kg/injection, schedule: Q01DX Z (ip), vehicle: saline",253 % of control
same,T/C,"dose: 1.0 mg/kg/injection, schedule: Q01DX Z (ip), vehicle: saline",91 % of control
same,T/C,"dose: 90.0 micrograms/kg/injection, schedule: Q01DX Z (ip), vehicle: saline",156 % of control
same,T/C,"dose: 180.0 micrograms/kg/injection, schedule: Q01DX Z (ip), vehicle: saline",121 % of control
same,T/C,"dose: 370.0 micrograms/kg/injection, schedule: Q01DX Z (ip), vehicle: saline",120 % of control
CCn1cnc2c(SC3CCCC3)ncnc21,T/C,[1],98 % of control
same,T/C,[10],98 % of control
CCCSc1ncnc2nc[nH]c12,T/C,"dose: 43.5 mg/kg/injection, schedule: Q01DX Z (ip), vehicle: other",98 % of control
same,T/C,"dose: 87.0 mg/kg/injection, schedule: Q01DX Z (ip), vehicle: other",105 % of control
same,T/C,"dose: 175.0 mg/kg/injection, schedule: Q01DX Z (ip), vehicle: other",91 % of control

# Source: PubChem BioAssay AID308 (DTP/NCI, 2004)
